Assay results from patent US10449247B2, “Compositions and methods for enhancing immune response” (priority 2007, dated 2019).

Tests used:
Format in all cases: cell-based, Human
THP-1 cells [1] = experiment: Cytokine release ELISA, naive THP-1 cells treated directly
Method: Human THP-1 monocytoid cells (acute monocytic leukemia) were obtained from American Type Tissue Collection (#TIB-202). Cells were cultured in RPMI-1640 medium supplemented with 2 mM L-glutamine, 10 mM HEPES, 1.0 mM sodium pyruvate, 10% fetal bovine serum and antibiotics. Peripheral blood monocytes (PBM) and lymphocytes (PBL) were isolated from PBMC by positive and negative selection, respectively, using the Miltenyi Biotec MACs magnetic separation system. PBM were cultured in RPMI-1640 medium supplemented with 2 mM L-glutamine, 10 mM HEPES, 1.0 mM sodium pyruvate, 20% fetal bovine serum and antibiotics. PBL were seeded in the same medium with the exception that 10% FBS was used. Specific cell densities and experimental conditions are described below.
Cells were evaluated in both naïve challenge and LPS challenge models. For naive studies, cells were exposed directly to OxBC for varying time frames and cytokine expression evaluated in conditioned medium (CM) by ELISA. For LPS challenge, cells were first incubated with OxBC for the indicated time, at which point OxBC was removed and replaced with fresh medium lacking the compound. At different time points post-treatment, cells were then challenged with LPS (15 ng/ml) for 24 h prior to cytokine levels in CM being evaluated by ELISA. In a variation of the LPS challenge scenario, primary PBM were first challenged with LPS for 24 h. After this initial stimulation, LPS-treated cells were then exposed to OxBC for 24 h before CM was harvested for ELISA analysis.
Analysis of cytokine levels in CM was performed using Endogen Human ELISA kits (Pierce) according to manufacturer's instructions. CM was prepared by centrifugation to remove cellular debris and either used neat, diluted with complete medium or concentrated using Nanosep 3K centrifugal concentrators (Pall) to ensure that cytokine levels fell within the linear ranges of each assay. Where appropriate, samples were stored at −80° C. and thawed by gradual equilibration at room temperature prior to use. Briefly, 50 μl samples were added to each well of a microplate to which antibody specific to the cytokine of interest had been adsorbed and incubated at room temperature for 1-3 h. Plates were washed three times to remove nonspecifically bound material and incubated for an additional 1-3 h with biotinylated antibody specific to the cytokine of interest. After washing, plates were incubated for 30 min with steptavidin-horse radish peroxidase reagent followed by an additional washing cycle. Washed plates were incubated for 30 min with 3,3′,5,5′-tetramethylbenzidine (TMB) substrate, the reaction stopped and absorbance measured at 450 nm (550 nm reference). Reference curves were generated for each cytokine using the supplied recombinant standard.
A primary proof-of-principle study was conducted in THP-1 cells that were untreated (mock) or treated for 24 h with OxBC, PMA (25 ng/ml) and vehicle (DMSO). […] Moreover, no change in MCP-1 and IL-8 expression was detected at lower concentrations of the compound. Both MCP-1 and IL-8 function as cytokines to recruit immune cells to sites of infection or injury. For example, IL-8 primarily recruits neutrophils within an inflammatory response and is also termed neutrophils recruitment factor (NRF), while MCP-1 primarily functions to recruit other monocytes. Expression of either cytokine by monocytes/macrophages is induced in response to detection of antigen or phagocytosis of an invading pathogen.

THP-1 cells [2] = experiment: Vybrant phagocytosis assay (fluorescein-labeled E. coli particles), THP-1 cells
Method: Human THP-1 monocytoid cells (acute monocytic leukemia) were obtained from American Type Tissue Collection (#TIB-202). Cells were cultured in RPMI-1640 medium supplemented with 2 mM L-glutamine, 10 mM HEPES, 1.0 mM sodium pyruvate, 10% fetal bovine serum and antibiotics. Primary peripheral blood monocytes (PBM) were isolated from mixed peripheral blood mononuclear cell preparations using the Miltenyi Biotec MACs magnetic separation system. PBM were cultured in the same medium as THP-1 cells, with the exception that 20% fetal bovine serum was used. Cells were seeded (1×10^5 cells/well, 96-well culture plates) 24 h prior to treatment with OxBC, PMA (25 ng/ml) and/or LPS (15 ng/ml) as described below. Cells incubated in an equivalent percentage (v/v) of DMSO alone served as controls.
Phagocytosis in monocyte cultures was evaluated using a Vybrant phagocytosis assay kit (Invitrogen, #V6694) based upon the ingestion of fluorescein-labeled E. coli (strain K12) bacterial particles. Briefly, treated cells were incubated at 37° C. for 5 h with a 1000 suspension of fluorescent bioparticles in Hank's buffered salt solution. […] The trypan blue solution was removed and the number of ingested particles determined using a fluorescence microplate reader (480 nm excitation, 520 nm emission). […] After recovery, the cells were treated with LPS for an 24 h before phagocytosis was measured.

THP-1 cells [3] = experiment: FACS analysis of surface receptor expression in THP-1 cells (no LPS)
Method: Human THP-1 monocytoid cells (acute monocytic leukemia) were obtained from American Type Tissue Collection (#TIB-202). Cells were cultured in RPMI-1640 medium supplemented with 2 mM L-glutamine, 10 mM HEPES, 1.0 mM sodium pyruvate, 10% fetal bovine serum and antibiotics. Cells were seeded (5×10^5 cells/well, 6-well culture plates) 24 h prior to treatment with OxBC and harvested for analysis according to three protocols: 1) Cells were treated with OxBC (2.5, 7.5 or 12.5 μM) for 24 h and than evaluated for surface receptor expression; 2) Cells were treated with OxBC (0.1, 0.5 or 1.0 μM) for 24 h, at which point fresh media lacking OxBC was supplied for 48 h prior to analysis, and 3) Cells were treated with OxBC (0.1, 0.5 or 1.0 μM) for 24 h, at which point fresh media lacking OxBC was supplied for 5 days. Treated cells were then stimulated with LPS (15 ng/ml) for 24 h prior to analysis. Cells incubated in an equivalent percentage (v/v) of DMSO alone served as controls. For studies in which LPS stimulation was not employed, PMA 25 ng/ml) was used as positive stimulator of monocytes differentiation.
Phycoerythrin (PE)-labeled primary antibodies against human CD11b, CD14, CD16, CD36, CD51/CD61, HLA (broad isoforms), HLA-B7, CD86, CD40, CD40L and CD3 were obtained from AbCam. Receptor expression was evaluated using direct immunofluorescence labeling and flow cytometry analysis. Briefly, triplicate cell aliquots in cold buffer (PBS containing 10% FBS and 1% sodium azide) were incubated with primary antibody (10-20 μl) for 45 min at room temperature under low light conditions. Cells were washed three times and resuspended in 500 μl of buffer for analysis using a FacsAria cell sorter. Unlabeled cells and cells labeled with antibody alone served as controls.

[4] = THP-1, 24 h, PMA 25 ng/ml, proof-of-principle

`CCCCCCCCCCCCCC(=O)O[C@@H]1[C@@H](C)[C@@]2(O)[C@@H](C=C(CO)C[C@]3(O)C(=O)C(C)=C[C@@H]23)[C@@H]2C(C)(C)[C@]12OC(C)=O` [PMA, Phorbol myristate acetate] gave an IFNγ (THP-1 cells [1]; [4]) of 10.0 ± 1.3 pg/mL, an IL-1β (THP-1 cells [1]; [4]) of 73.4 ± 2.8 pg/mL and an IL-8 (THP-1 cells [1]; [4]) of 637.2 ± 18.6 pg/mL. The IL-12 (THP-1 cells [1]; [4]) was 8.0 ± 6.5 pg/mL, the MCP-1 (THP-1 cells [1]; [4]) was 654.9 ± 60.2 pg/mL and the TNF (THP-1 cells [1]; [4]) was 110.1 ± 1.7 pg/mL. For the same compound, the IFNγ (THP-1 cells [1]; THP-1, PMA 25 ng/ml, Table 3) was 24.9 pg/mL, the IL-1β (THP-1 cells [1]; THP-1, PMA 25 ng/ml, Table 3) was 62.5 pg/mL and the IL-6 (THP-1 cells [1]; THP-1, PMA 25 ng/ml, Table 3) was 20.3 pg/mL. It also gave an IL-8 (THP-1 cells [1]; THP-1, PMA 25 ng/ml, Table 3) of 712.4 pg/mL, an IL-12 (THP-1 cells [1]; THP-1, PMA 25 ng/ml, Table 3) of 20.9 pg/mL and an MCP-1 (THP-1 cells [1]; THP-1, PMA 25 ng/ml, Table 3) of 574.8 pg/mL. For the same compound, the TNF (THP-1 cells [1]; THP-1, PMA 25 ng/ml, Table 3) was 108.5 pg/mL, the phagocytic activity (THP-1 cells [2]; THP-1, PMA 24 h, 72 h recovery) was “large increase in phagocytic activity” and the “increase in phagocytic activity relative to control cultures” value (THP-1 cells [2]; naive THP-1, PMA 25 ng/ml 24 h) was 12.94±2.05 fold. The “CD11b expression, fold change relative to vehicle controls” value (THP-1 cells [3]; THP-1, 24 h, PMA 25 ng/ml) was 0.97 ± 0.02 fold, the “CD14 expression, fold change relative to vehicle controls” value (THP-1 cells [3]; THP-1, 24 h, PMA 25 ng/ml) was 1.91 ± 0.06 fold and the “CD16 expression, fold change relative to vehicle controls” value (THP-1 cells [3]; THP-1, 24 h, PMA 25 ng/ml) was 4.77 ± 0.31 fold. For the same compound, the “CD36 expression, fold change relative to vehicle controls” value (THP-1 cells [3]; THP-1, 24 h, PMA 25 ng/ml) was 1.03 ± 0.01 fold, the “CD51 expression, fold change relative to vehicle controls” value (THP-1 cells [3]; THP-1, 24 h, PMA 25 ng/ml) was 5.07 ± 0.29 fold and the “B7-2 (CD86) expression, fold change relative to vehicle controls” value (THP-1 cells [3]; THP-1, PMA 25 ng/ml) was 2.04 ± 0.29 fold. For the same compound, the “CD11b receptor density (fluorescence intensity), fold change relative to vehicle controls” value (THP-1 cells [3]; THP-1, PMA 25 ng/ml) was 1.97 ± 0.01 fold, the “CD36 receptor density (fluorescence intensity), fold change relative to vehicle controls” value (THP-1 cells [3]; THP-1, PMA 25 ng/ml) was 4.57 ± 0.03 fold and the “CD40L expression, fold change relative to vehicle controls” value (THP-1 cells [3]; THP-1, PMA 25 ng/ml) was 1.4 ± 0.10 fold. The “CD40 counts, fold change relative to vehicle controls” value (THP-1 cells [3]; THP-1, PMA 25 ng/ml) was 0.98 ± 0.01 fold, the “CD40 intensity, fold change relative to vehicle controls” value (THP-1 cells [3]; THP-1, PMA 25 ng/ml) was 1.31 ± 0.1 fold and the “HLA (DQ/DR/DP) expression, fold change relative to vehicle controls” value (THP-1 cells [3]; THP-1, PMA 25 ng/ml) was 1.05 ± 0.01 fold. For the same compound, the “increase of densities of CD11b and CD36” value (THP-1 cells [3]; THP-1, PMA 25 ng/ml) was 2 to 4 fold.
